For test [1], the target named is proteins in rat lung membranes. In words: Competitive binding assay with [3H]-CP2117 on rat lung membranes (RLM). The settings on record: given as Log IC50 (negative values); displacement of 10 nM [3H]-CP2117, overnight at 4° C.; ND- not detected.
Test [2] deals with PGE2 release in J774 macrophages. In words: PGE2 release from LPS/IFNγ-stimulated J774 macrophages (radioimmunoassay). It is filed as cell-based, murine. The settings on record: 30 min pre-treatment, 24 hour incubation; for activity at 1 µM / activity at 10 µM: Mus musculus, J774, 24 h; for activity at 1 µM: read-out: Effects on PGE2 release in J774 macrophages at 1 μM as a % of LPS/IFNγ control, mean; for activity at 10 µM: read-out: Effects on PGE2 release in J774 macrophages at l0 μM as a % of LPS/IFNγ control, mean.

The text below walks through data of patent US8536157B2, “Non-steroidal compounds” (The University of Melbourne, priority 2007, dated 2013).

Regarding `COc1ccc(/C(C)=N/OCc2cccc(F)c2)cc1O` [CP30262, (E)-3′-Hydroxy-4′-methoxyacetophenone O-3-Fluorobenzyl Oxime], the “Log IC50 RLM binding” value in test [1] is given as −6.88.

On to `COc1ccc(C(=NOCc2ccc([N+](=O)[O-])cc2)[C@H]2CC[C@H](CCO)CC2)cc1O` [CP30347, trans-(3-Hydroxy-4-methoxyphenyl)-4-(2-hydroxyethyl)cyclohexylmethanone O-4-Nitrobenzyl Oxime], for which, in test [1], the “Log IC50 RLM binding” value is reported as −5.75. In test [2], the activity at 1 µM was 102%. The activity at 10 µM in test [2] (l0 μM) is 68%.

As for `COc1cc(-c2ccccc2)c(/C(C)=N/OCc2ccc([N+](=O)[O-])cc2)cc1O` [CP30329, (E)-5′-Hydroxy-4′-methoxy-2′-phenylacetophenone O-4-Nitrobenzyl Oxime], the “Log IC50 RLM binding” value in test [1] is reported as −6.2. Moreover, the activity at 10 µM in test [2] (l0 μM) came out at 55%.

As for `COc1cc(C2CCCCC2)c(C(C)=NOCc2ccc([N+](=O)[O-])cc2)cc1O` [CP30424, 2′-Cyclohexyl-5′-hydroxy-4′-methoxyacetophenone O-4-Nitrobenzyl Oxime], the “Log IC50 RLM binding” value in test [1] is on record as −6.18. The activity at 1 µM in test [2] amounted to 83%.

`COc1cc(-c2ccc(N)cc2)c(/C(C)=N/OCc2ccc([N+](=O)[O-])cc2)cc1O` [CP30381, (E)-2′-(4-Aminophenyl)-5′-hydroxy-4′-methoxyacetophenone O-4-Nitrobenzyl Oxime]: the activity at 1 µM in test [2] was 62%.

`C/C(=N\OCc1ccc2nonc2c1)c1ccc(O)c(F)c1` [CP9128, 3′-Fluoro-4′-hydroxyacetophenone-O-[(benzo[c][1,2,5]oxadiazol-5-yl)methyl]oxime]: the “Log IC50 RLM binding” value in test [1] is −5.9. In addition, in test [2], the activity at 1 µM came to 62%. Also, the activity at 10 µM in test [2] (l0 μM) turned out to be 65%.

As for `C/C(=N\OCc1ccc2nonc2c1)c1ccc(F)c(O)c1` [CP9135, 4′-Fluoro-3′-hydroxyacetophenone-O—[(benzo[c][1,2,5]oxadiazol-5-yl)methyl]oxime], the “Log IC50 RLM binding” value in test [1] is −5.28. Moreover, in test [2], the activity at 1 µM stood at 66%. Also, the activity at 10 µM in test [2] (l0 μM) was 90%.

In the case of `COc1ccc(/C(C)=N/OCc2ccc(F)c(F)c2)cc1O` [CP30281, (E)-3′-Hydroxy-4′-methoxyacetophenone O-3,4-Difluorobenzyl Oxime], in test [1], the “Log IC50 RLM binding” value is listed as −6.16.

For `COc1cc2c(cc1O)/C(=N/OCc1ccc([N+](=O)[O-])cc1)CC2` [TB81, (E)-6-Hydroxy-5-methoxy-2,3-dihydroinden-1-one O-4-Nitrobenzyl Oxime], the “Log IC50 RLM binding” value in test [1] was −6.16.

Turning to `COc1ccc(-c2cc(OC)c(O)cc2/C(C)=N/OCc2ccc([N+](=O)[O-])cc2)cc1` [CP30338, (E)-5′-Hydroxy-4′-methoxy-2′-(4-methoxyphenyl)acetophenone O-4-Nitrobenzyl Oxime], in test [1], the “Log IC50 RLM binding” value is reported as −6.88.

`COc1cc([C@H]2CC[C@@](C)(CO)CC2)c(C(C)=NOCc2ccc3nonc3c2)cc1O` [CP30453, 2′-(4-Hydroxymethyl-4-methyl)cyclohexyl-5′-hydroxy-4′-methoxyacetophenone O-(benzofurazan-5-yl)methyl Oxime]: the “Log IC50 RLM binding” value in test [1] was −5.81.

Take `COc1cc2c(cc1O)/C(=N/OCc1ccc([N+](=O)[O-])cc1)CCC2` [TB76, (E)-7-Hydroxy-6-methoxy-3,4-dihydronaphthalen-1(2H)-one O-4-Nitrobenzyl Oxime]: the “Log IC50 RLM binding” value in test [1] was −6.48.

As to `COc1ccc(/C(C)=N/OCc2cccc(OC(F)(F)F)c2)cc1O` [CP30282, (E)-3′-Hydroxy-4′-methoxyacetophenone O-3-Trifluoromethoxybenzyl Oxime], the “Log IC50 RLM binding” value in test [1] was −6.41.

Consider `COc1cc2c(cc1OC)/C(=N/OCc1ccc([N+](=O)[O-])cc1)CC2` [TB54, (E)-5,6-Dimethoxy-2,3-dihydroinden-1-one O-4-Nitrobenzyl Oxime], for which the activity at 1 µM in test [2] was 95%. Further, in test [2] (l0 μM), the activity at 10 µM was 78%.

`COc1ccc(C(=NOCc2ccc([N+](=O)[O-])cc2)[C@H]2CC[C@@H](CCO)CC2)cc1O` [CP30348-1, cis-(3-Hydroxy-4-methoxyphenyl)-4-(2-hydroxyethyl)cyclohexylmethanone O-4-Nitrobenzyl Oxime]: in test [1], the “Log IC50 RLM binding” value is on record as −6.02. The “Effects on PGE2 release in J774 macrophages at 1 μM as a % of LPS/IFNγ control, mean” value in test [2] is 124 % of LPS/IFNγ control. The activity at 10 µM in test [2] (l0 μM) was determined as 91%.

Take `COc1cc(-c2ccc(F)cc2)c(/C(C)=N/OCc2ccc([N+](=O)[O-])cc2)cc1O` [CP30344, (E)-2′-(4-Fluorophenyl)-5′-hydroxy-4′-methoxyacetophenone O-4-Nitrobenzyl Oxime]: the “Log IC50 RLM binding” value in test [1] is reported as −5.43. Also, the activity at 1 µM in test [2] was 111%. In test [2] (l0 μM), the activity at 10 µM came to 94%.

With `COc1cc(-c2ccc(Cl)cc2)c(/C(C)=N/OCc2ccc([N+](=O)[O-])cc2)cc1O` [CP30340, (E)-2′-(4-Chlorophenyl)-5′-hydroxy-4′-methoxyacetophenone O-4-Nitrobenzyl Oxime], in test [1], the “Log IC50 RLM binding” value is recorded as −6.26. Also, the activity at 10 µM in test [2] (l0 μM) worked out at 51%.

On to `COc1ccc(/C(C)=N/OCc2ccc(F)cc2)cc1O` [CP30266, (E)-3′-Hydroxy-4′-methoxyacetophenone O-4-Fluorobenzyl Oxime], for which the “Log IC50 RLM binding” value in test [1] was −6.9.

In the case of `COc1cc2c(cc1O)/C(=N/OCc1ccc3nonc3c1)CCC2` [Compound 2-TB-146, (E)-7-Hydroxy-6-methoxy-3,4-dihydronaphthalen-1(2H)-one O-benzo[c][1,2,5]oxadiazol-5-ylmethyl oxime], in test [1], the “Log IC50 RLM binding” value was −6.91.

Consider `COc1ccc(/C(C)=N/OCc2cccc(C)c2)cc1O` [CP30264, (E)-3′-Hydroxy-4′-methoxyacetophenone O-3-Methylbenzyl Oxime], for which the “Log IC50 RLM binding” value in test [1] is reported as −6.96. Moreover, the activity at 1 µM in test [2] amounted to 77%. Also, in test [2] (l0 μM), the activity at 10 µM amounted to 74%.

As to `COc1ccc(/C(C)=N/OCc2ccccc2F)cc1O` [CP30280, (E)-3′-Hydroxy-4′-methoxyacetophenone O-2-Fluorobenzyl Oxime], in test [1], the “Log IC50 RLM binding” value is −6.5.

Consider `COc1ccc(C(=NOCc2ccc([N+](=O)[O-])cc2)[C@H]2CC[C@@H](CCO)CC2)cc1O` [CP30348-2, cis-(3-Hydroxy-4-methoxyphenyl)-4-(2-hydroxyethyl)cyclohexylmethanone O-4-Nitrobenzyl Oxime], for which the “Log IC50 RLM binding” value in test [1] is −5.6. Besides, the “Effects on PGE2 release in J774 macrophages at 1 μM as a % of LPS/IFNγ control, mean” value in test [2] is 85 % of LPS/IFNγ control. Further, in test [2] (l0 μM), the “Effects on PGE2 release in J774 macrophages at l0 μM as a % of LPS/IFNγ control, mean” value is given as 111 % of LPS/IFNγ control.

In the case of `COc1cc(-c2cccc(NC(=O)OC(C)(C)C)c2)c(/C(C)=N/OCc2ccc([N+](=O)[O-])cc2)cc1O` [CP30339, (E)-2′-(3-tert-Butoxycarbonylaminophenyl)-5′-hydroxy-4′-methoxyacetophenone O-4-Nitrobenzyl Oxime], the “Log IC50 RLM binding” value in test [1] is on record as −6.64. Moreover, the activity at 10 µM in test [2] (l0 μM) turned out to be 36%.

In the case of `COc1cc2c(cc1O)/C(=N/OCc1ccc3nonc3c1)CC2` [Compound 2-TB-147, (E)-6-Hydroxy-5-methoxy-2,3-dihydro-1H-inden-1-one O-benzo[c][1,2,5]oxadiazol-5-ylmethyl oxime], the “Log IC50 RLM binding” value in test [1] is reported as −6.43.
